Measurements as given in patent US10184137B2, “Method of producing isoprene monomer” (AJINOMOTO CO., INC., priority 2014, dated 2019).
Counter-ions that a name gives are not always drawn.

How the values were obtained:
[1] = HPLC verification of prepared potassium mevalonate after frozen storage; settings: HPLC peak area versus lithium mevalonate standard; stored at −20° C.
Procedure: The mixed solution was then incubated at 37° C. for 2 hours. After incubation, pH of the solution was adjusted to 8.0 by neutralization with hydrochloric acid.
HPLC used for the verification was HITACH High-Performance Liquid Chromatography (L-2000). HPLC was performed by using YMC-Pack ODS-A (150×4.6 mm I.D.: YMC CO., LTD.) as stationary phase and phosphoric acid (pH2.5) as mobile phase. Detection was performed at 210 nm.

[2] = target: T1, Nitrosopumilus maritimus mevalonate kinase (nmr), wild type, SEQ ID NO:9, N-terminal His-tag (Nitrosopumilus maritimus, UniProt A9A427); experiment: Examination of product inhibition on nmr-derived mevalonate kinase; format: biochemical; settings: reaction on 1 mM mevalonate
[3] = target: T1, Nitrosopumilus maritimus mevalonate kinase (nmr), wild type, SEQ ID NO:9, N-terminal His-tag; experiment: Inhibition of nmr-derived mevalonate kinase by DMAPP, GPP, FPP or DPM; format: biochemical; settings: 1 mM DPM, control 0.2064
Procedure: (§1) Km value was calculated by Lineweaver-Burk plot.
(§2) Since GPP and FPP solutions contain methanol, methanol which was needed to keep the same methanol level at the addition to the reaction system was added to the reaction solution, which was designated as control.
(§3) Effect of 1 mM diphosphomevalonate (DPM) on each enzyme was also studied.

[4] = target: Corynebacterium variabile mevalonate kinase (cva), wild type, SEQ ID NO:3, N-terminal His-tag (Corynebacterium variabile, UniProt A0A0X2NLH5); experiment: Inhibition of cva-derived mevalonate kinase by DMAPP, GPP, FPP or DPM; format: biochemical; settings: 1 mM DPM, control 0.073275
Procedure: as §1, §2, §3

[5] = target: T2, Methanocella paludicola mevalonate kinase (mpd), wild type, SEQ ID NO:1, N-terminal His-tag (Methanocella paludicola, UniProt D1YZ39); experiment: Inhibition of mpd-derived mevalonate kinase by DMAPP, GPP, FPP or DPM; format: biochemical; settings: 1 mM DPM, control 0.148
T2 sequence (D1YZ39 entry or part of it): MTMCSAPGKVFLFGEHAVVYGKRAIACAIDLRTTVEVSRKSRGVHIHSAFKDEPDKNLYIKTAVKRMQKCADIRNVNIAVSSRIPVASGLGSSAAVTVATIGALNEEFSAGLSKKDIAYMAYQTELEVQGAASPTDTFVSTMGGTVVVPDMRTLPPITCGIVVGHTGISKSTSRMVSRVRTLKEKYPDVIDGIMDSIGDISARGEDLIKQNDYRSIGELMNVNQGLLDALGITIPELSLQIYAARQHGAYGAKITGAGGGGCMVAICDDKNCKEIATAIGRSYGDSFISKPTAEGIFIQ
Procedure: as §1, §2, §3

[6] = target: T3, Methanosarcina mazei mevalonate kinase (mma), wild type, SEQ ID NO:12, N-terminal His-tag (Methanosarcina mazei, UniProt Q8PW39); experiment: Inhibition of mma-derived mevalonate kinase by DMAPP, GPP, FPP or DPM; format: biochemical
T3 sequence (Q8PW39 1-301): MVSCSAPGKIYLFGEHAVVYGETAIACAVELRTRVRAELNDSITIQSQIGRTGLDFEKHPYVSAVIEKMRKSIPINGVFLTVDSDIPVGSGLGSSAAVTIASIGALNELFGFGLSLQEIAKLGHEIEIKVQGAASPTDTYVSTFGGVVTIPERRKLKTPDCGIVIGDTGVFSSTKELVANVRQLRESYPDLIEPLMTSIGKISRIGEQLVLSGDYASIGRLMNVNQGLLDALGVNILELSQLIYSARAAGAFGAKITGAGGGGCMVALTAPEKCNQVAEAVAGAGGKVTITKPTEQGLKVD
Procedure: as §1, §2, §3

[7] = target: T4, Saccharomyces cerevisiae mevalonate kinase (sce, ERG12), wild type, NP_013935.1, N-terminal His-tag (Saccharomyces cerevisiae, UniProt P07277); experiment: Inhibition of sce-derived mevalonate kinase by DMAPP, GPP, FPP or DPM; format: biochemical; settings: control 0.1028
T4 construct: His-tag (N); made in house; host or cells: E. coli BL21(DE3)
T4 sequence (P07277 1-443): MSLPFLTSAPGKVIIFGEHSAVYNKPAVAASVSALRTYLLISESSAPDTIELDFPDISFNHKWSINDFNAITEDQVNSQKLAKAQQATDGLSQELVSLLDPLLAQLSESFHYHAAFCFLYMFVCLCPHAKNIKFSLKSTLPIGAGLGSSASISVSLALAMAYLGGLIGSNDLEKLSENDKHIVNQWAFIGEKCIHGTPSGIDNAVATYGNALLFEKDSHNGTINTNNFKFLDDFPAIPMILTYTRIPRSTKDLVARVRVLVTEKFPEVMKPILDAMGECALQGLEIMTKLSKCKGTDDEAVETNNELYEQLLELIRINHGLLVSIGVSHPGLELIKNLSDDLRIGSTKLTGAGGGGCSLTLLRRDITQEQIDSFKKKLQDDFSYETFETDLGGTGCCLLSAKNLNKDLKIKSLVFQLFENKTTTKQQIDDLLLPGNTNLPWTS
Procedure: as §1, §2, §3

[8] = target: T5, Methanosaeta concilii mevalonate kinase (mcl), wild type, SEQ ID NO:6, N-terminal His-tag (Methanothrix soehngenii, UniProt F4BZB3); experiment: Inhibition of mcl-derived mevalonate kinase by DMAPP, GPP, FPP or DPM; format: biochemical; settings: mcl; 1 mM DPM; control 0.1373
T5 sequence (F4BZB3 1-317): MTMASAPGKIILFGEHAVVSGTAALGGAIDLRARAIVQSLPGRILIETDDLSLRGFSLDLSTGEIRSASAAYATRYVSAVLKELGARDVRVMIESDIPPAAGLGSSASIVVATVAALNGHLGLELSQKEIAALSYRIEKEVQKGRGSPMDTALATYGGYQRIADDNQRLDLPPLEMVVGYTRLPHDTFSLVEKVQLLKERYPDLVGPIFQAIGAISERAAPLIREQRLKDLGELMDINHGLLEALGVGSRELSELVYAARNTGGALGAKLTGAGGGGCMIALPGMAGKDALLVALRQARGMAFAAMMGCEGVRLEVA
Procedure: as §1, §2, §3

[9] = target: T5, Methanosaeta concilii mevalonate kinase (mcl), wild type, SEQ ID NO:6, N-terminal His-tag; experiment: Km and kcat of mevalonate kinase (mcl-derived); settings: compared with the other enzymes
Procedure: (§7) Each obtained plasmid was used for transformation of E. coli BL21(DE3). […] When OD600 reached approximately 0.5, 0.1 mM IPTG (for cva, mma, nmr, and sce) or 1 mM (for mcl and mpd) of IPTG was added, and then the mixture was kept at 20° C. overnight to induce the target protein. […] After centrifugation (28,000×g, 30 min), the supernatant was adsorbed onto His-Trap HP (GE Healthcare) to elute the target protein by linear concentration gradient of Imidazol (final concentration 0.5 M). Obtained protein was dialyzed by using an external solution composed of 20 mM Tris-HCl (pH 8.0) containing 1 mM DTT and 50 mM NaCl. Dialyzed protein was designated as purified enzyme. Protein quantity was measured with Bio-RAD protein assay kit and BSA standard condition.
(§8) Decrease in absorbance at 340 nm at 30° C. was measured to determine the enzyme activity. JASCO Corporation's spectrophotometer (V-650) was used in this study. […] Km value was calculated by Lineweaver-Burk plot.

[10] = target: T2, Methanocella paludicola mevalonate kinase (mpd), wild type, SEQ ID NO:1, N-terminal His-tag; experiment: Km and kcat of mevalonate kinase (mpd-derived); settings: compared with the other enzymes
Procedure: as §7, §8

[11] = substrate: Nc1ncnc2c1ncn2[C@@H]1O[C@H](COP(=O)(O)OP(=O)(O)OP(=O)(O)O)[C@@H](O)[C@H]1O; experiment: purified protein, by the assay type; format: biochemical, Saccharomyces cerevisiae; settings: other: sce, 5 mM potassium mevalonate, pH 7.6, 30° C., Lineweaver-Burk plot
Procedure: (§4) Each obtained plasmid was used for transformation of E. coli BL21(DE3). […] When OD600 reached approximately 0.5, 0.1 mM IPTG (for cva, mma, nmr, and sce) or 1 mM (for mcl and mpd) of IPTG was added, and then the mixture was kept at 20° C. overnight to induce the target protein. Harvested cells were suspended in buffer solution A (50 mM sodium phosphate, 0.3 M NaCl and 20 mM Imidazol), and then the cells were disrupted with an ultrasonic disruptor (TOMY: UD-201). […] After centrifugation (28,000×g, 30 min), the supernatant was adsorbed onto His-Trap HP (GE Healthcare) to elute the target protein by linear concentration gradient of Imidazol (final concentration 0.5 M). Obtained protein was dialyzed by using an external solution composed of 20 mM Tris-HCl (pH 8.0) containing 1 mM DTT and 50 mM NaCl. Dialyzed protein was designated as purified enzyme. Protein quantity was measured with Bio-RAD protein assay kit and BSA standard condition.
(§5) Decrease in absorbance at 340 nm at 30° C. was measured to determine the enzyme activity. […] Km value was calculated by Lineweaver-Burk plot.
(§6) Measured activity of each enzyme (JABS/min) was presented on Table 9 for the calculation of apparent Km value (Km app.) of each enzyme. Table 10 presents Km app., Vmax, molecular weight of the enzyme protein, protein concentration in the enzyme solution and calculated kcat.

[12] = substrate: Nc1ncnc2c1ncn2[C@@H]1O[C@H](COP(=O)(O)OP(=O)(O)OP(=O)(O)O)[C@@H](O)[C@H]1O; experiment: purified protein, by the assay type; format: biochemical, Nitrosopumilus maritimus; settings: other: nmr, 5 mM potassium mevalonate, pH 7.6, 30° C., Lineweaver-Burk plot
Procedure: as §4, §5, §6

[13] = substrate: Nc1ncnc2c1ncn2[C@@H]1O[C@H](COP(=O)(O)OP(=O)(O)OP(=O)(O)O)[C@@H](O)[C@H]1O; experiment: purified protein, by the assay type; format: biochemical, Methanosarcina mazei; settings: other: mma, 5 mM potassium mevalonate, pH 7.6, 30° C., Lineweaver-Burk plot
Procedure: as §4, §5, §6

[14] = substrate: Nc1ncnc2c1ncn2[C@@H]1O[C@H](COP(=O)(O)OP(=O)(O)OP(=O)(O)O)[C@@H](O)[C@H]1O; experiment: purified protein, by the assay type; format: biochemical, Corynebacterium variabile; settings: other: cva, 5 mM potassium mevalonate, pH 7.6, 30° C., Lineweaver-Burk plot
Procedure: as §4, §5, §6

Molecule: C[C@@](O)(CCO)CC(=O)[O-].[K+] [potassium mevalonate]
- stability after frozen storage [1]: stable

Molecule: CC(O)(CCOP(=O)(O)OP(=O)(O)O)CC(=O)O (racemic) [DPM, (±)-mevalonic acid 5-diphosphate tetralithium salt]
- DPM-induced inhibition [2]: inhibition is not observed
- Enzyme activity with 1 mM DPM [3]: 0.2 dABS/min
- Enzyme activity with 1 mM DPM [4]: 0.07555 dABS/min
- Enzyme activity with 1 mM DPM [5]: 0.156 dABS/min
- Enzyme activity with 1 mM DPM ([6]; 1 mM DPM, control 0.1604): 0.1368 dABS/min
- Inhibition by DPM ([6]; 1 mM diphosphomevalonate): Slight inhibitory activity
- Enzyme activity with 1 mM DPM [7]: 0.0984 dABS/min
- Enzyme activity with 1 mM DPM [8]: 0.1353 dABS/min

Molecule: Nc1ncnc2c1ncn2[C@@H]1O[C@H](COP(=O)(O)OP(=O)(O)OP(=O)(O)O)[C@@H](O)[C@H]1O [ATP]
- Affinity [9]: higher affinity
- Affinity [10]: higher affinity

B1: Saccharomyces cerevisiae mevalonate kinase (sce, ERG12), wild type, NP_013935.1, N-terminal His-tag (Saccharomyces cerevisiae S288C) (protein)
chain: T4 sequence (P07277 1-443)
notes: His-tag (N); made in house; host or cells: E. coli BL21(DE3)
- Km [11]: 464 ± 7.6 µM

B2: Nitrosopumilus maritimus mevalonate kinase (nmr), wild type, SEQ ID NO:9, N-terminal His-tag (Nitrosopumilus maritimus SCM1) (protein)
chain: MKSKASAPGKVILFGEHFVVYGVKAILCAINKRIAVTAEKIDERKISIKSNIGHLELEPNKPISEINSPLKPFYYLANKIIQDKNFGIKIDVESEIPLGVGLGSSSACCVAGAAAISNLFENNSKEEILKLAIEAEKTIFQNTSGADCTVCTFGGLMEYDKENGFSKIESEPNFHLVIANSNVEHSTESVVAGVRKFKKNNEAEFSKLCKDESHLIENVLELLKENNIRELGERVIKNQEYLERIGISNAKLREMIQTGQNSSFGAKITGAGGGGCIFALTDESNLENTIKEFKEKNHECFSVKIDFKGLDTF
- Km [12]: 1006 ± 20^ μM

B3: Methanosarcina mazei mevalonate kinase (mma), wild type, SEQ ID NO:12, N-terminal His-tag (Methanosarcina mazei Go1) (protein)
chain: T3 sequence (Q8PW39 1-301)
- Km [13]: 687 ± 9.3 µM

B4: Corynebacterium variabile mevalonate kinase (cva), wild type, SEQ ID NO:3, N-terminal His-tag (Corynebacterium variabile) (protein)
chain: MAPHVGHGQTVAKIILFGEHSVVYGHPAIAMPLRTLRMIARVEPTDGPGTLSGLGWTGPITEAPARFSSIVKAAEVASDFAGHPGAGLNISTESEFPPERGLGSSAAAAGAVIRAVLDAFDTPATPRELFDLTQEAETVAHGRPSGLDAVATSAEAPVHFQAGQATDLEFSPDAWIVIADSGVEGSTRETVGHVRGRFEAEPDIITALLNRLGEITDEVVVDLRTGDVQGMGARMTEAHGILGQLGVSNTQLDALVTASLGAGALGAKLTGGGRGGCVIALAATEEDAENVEKALVDAGARGTWVHAPATGQMAGEVMQ
- Km [14]: 1347 ± 29^ μM
